The numbers were not newly measured in PMC5810560 (Chemico-biological interactions, 2017), which cites them from elsewhere.

The conditions of this data set: rats, brain homogenates, 50 μmol IM exposure; ref Petroianu et al., 2007; cited from earlier work.

`C[n+]1ccccc1/C=N/O` [2-PAM, pralidoxime chloride]: the brain/plasma ratio was 0.056.
